For this series the following is noted: buffer; pH 7.4; 6.0 h; 150.0 µM.

Converted amounts (≈) assume the structure as drawn.

For `O=C(Nc1ccc(Cl)c(S(=O)(=O)N2CCOCC2)c1)c1ccccc1`, the kinetic solubility is < 1 µg/mL.

In the case of `O=C(Nc1cncc(Cc2ccccc2)c1)c1ccc(-c2cccc([N+](=O)[O-])c2)o1`, the solubility (kinetic) was < 1 µg/mL.

On to `CC1=C(C(=O)Nc2nnc(-c3ccccc3)s2)C(c2[nH]ncc2Cl)N=C(Nc2nc3ccccc3o2)N1` (centres undefined), for which the solubility (kinetic) was < 1 µg/mL.

As to `O=C(Nc1ccc([S+](=O)([O-])Nc2nccs2)cc1)c1ccccn1`, the kinetic solubility stood at 7.05 µg/mL (≈ 19.6 µM).

Consider `O=C(Nc1ncc(Cc2ccc(C(F)(F)F)cc2)s1)c1ccco1`, for which the solubility (kinetic) was < 1 µg/mL.

Regarding `C=CCc1ccc(O)c(-c2ccc(O)c(CC=C)c2)c1`, the kinetic solubility is > 100 µg/mL.

`Cc1cc(C)c(C(=O)Nc2cccc([S+](=O)([O-])N3CCCCCC3)c2)[nH]1`: the kinetic solubility was < 1 µg/mL.

`CCOc1ccc(CCNC(=O)c2ccnn2Cc2cccc(C)c2)cc1OCC` came in with a kinetic solubility of 2.88 µg/mL (≈ 7.06 µM).

As to `CCc1oc2ccccc2c1C(=O)c1cc(I)c(O)c(I)c1`, the kinetic solubility is > 77 µg/mL.

As for `O=C(Nc1ccc(F)c(C(F)(F)F)c1)Nc1nnc(-c2ccncc2)s1`, the solubility (kinetic) was < 1 µg/mL.

As to `O=C(Nc1nc(-c2ccccc2)cs1)c1ccccc1-n1cnnn1`, the solubility (kinetic) is < 1 µg/mL.

Turning to `O=C(C1CCN(c2nc(-c3ccc(Br)cc3)cs2)CC1)N1CCNCC1`, the kinetic solubility is > 64 µg/mL.

`COc1ccc(NC(=O)c2c(C)cccc2C)cc1[S+](=O)([O-])N(C)C` had a solubility (kinetic) of 32.8 µg/mL (≈ 90.4 µM).

Take `Cc1sc(NC(=O)Cc2ccc3c(c2)OCO3)nc1-c1ccc2c(c1)CCN2C(=O)c1ccccc1F`: the kinetic solubility was < 1 µg/mL.

`CC(C)COc1ccc(-c2csc(N3CCC(C(N)=O)CC3)n2)cc1` yielded a kinetic solubility of 2.68 µg/mL (≈ 7.45 µM).

With `O=[S+]([O-])(Nc1cnc2ccccc2c1)c1ccc(NCc2ccc(Cl)cc2O)cc1`, the solubility (kinetic) was < 1 µg/mL.

Take `N#Cc1nc(-c2cccc3ccccc23)oc1Nc1ccccc1`: the solubility (kinetic) is < 1 µg/mL.

`COc1ccc(C(=O)Nc2ccc3c(c2)N(C2CCCC2)C(=O)c2ccccc2S3)cc1OC`: the solubility (kinetic) is < 1 µg/mL.

For the molecule `CCOc1ccccc1N(CC(=O)Nc1cc(OC)ccc1OC)S(=O)(=O)c1ccccc1`, the solubility (kinetic) is < 1 µg/mL.

With `COc1cc(/C=C(\C#N)C(=O)c2ccc(O)c(O)c2)cc(I)c1O`, the solubility (kinetic) is 50.3 µg/mL (≈ 115 µM).

As to `CC(C)(C)c1cc(NC(=O)Nc2ccc(-c3cn4c(n3)sc3cc(OCCN5CCOCC5)ccc34)cc2)no1`, the kinetic solubility is < 1 µg/mL.

On to `COc1ccc(Nc2cc(C)nc(-n3nc(C)cc3C)n2)cc1Cl`, for which the solubility (kinetic) turned out to be 3.58 µg/mL (≈ 10.4 µM).

Consider `Cc1ccc(S(=O)(=O)Nc2cnccc2C(=O)Nc2nc(-c3ccco3)cs2)cc1`, for which the kinetic solubility is > 65 µg/mL.

Turning to `Cn1cncc1[C@@](N)(c1ccc(Cl)cc1)c1ccc2c(c1)c(-c1cccc(Cl)c1)cc(=O)n2C`, the solubility (kinetic) was < 1 µg/mL.

`N#Cc1cccc(NC(=O)c2sc3nc4c(cc3c2N)N2CCC4CC2)c1` gave a kinetic solubility of 5.07 µg/mL (≈ 13.5 µM).

In turn, `CN(C(=O)c1cn2c(-c3ccc(C(F)(F)F)cc3)cnc2cn1)c1ccc(C#N)cc1` had a solubility (kinetic) of 3.56 µg/mL (≈ 8.46 µM).

For the molecule `CC1(C)CC(=O)C2=C(C1)NC(Nc1nc3ccccc3o1)=NC2c1ccccc1Cl` (centres undefined), the solubility (kinetic) is < 1 µg/mL.

As to `C=CC(=O)N1CCCN(c2cc(NCCC(=O)O)nc(-c3ccccn3)n2)CC1`, the solubility (kinetic) is > 59 µg/mL.

For `FC1(F)CCN(c2nc(-c3ccncc3)nc3ccccc23)CC1`, the solubility (kinetic) is < 1 µg/mL.

Take `CC[C@H]1CN2CCC3CC(OC)C(OC)CC3[C@@H]2C[C@@H]1C[C@H]1NCCC2=C1CC(OC)=C(O)C2` (some centres undefined): the kinetic solubility was determined as 44.6 µg/mL (≈ 93.9 µM).

Regarding `Cc1cc(-c2ccc(C)c(S(=O)(=O)NCC3CCN(Cc4ccc(F)cc4)CC3)c2)on1`, the kinetic solubility came out at 40.5 µg/mL (≈ 88.5 µM). The solubility kinetic values of the last two molecules are within 1.5-fold of each other.

For `O=C(Cc1n[nH]c(=O)c2ccccc12)NC1CCCc2c1[nH]c1c(Cl)cccc21` (centres undefined), the kinetic solubility was < 1 µg/mL.

Take `CCCCCn1c(CCCNC(=O)c2ccccc2OC)nc2ccccc21`: the solubility (kinetic) turned out to be 32.3 µg/mL (≈ 85.2 µM).

With `Cc1ccc(NC2=C(c3ccc(C(F)(F)F)cc3)C(=O)c3ccccc32)cc1F`, the solubility (kinetic) was < 1 µg/mL.

`O=C1Nc2cc(Cl)ccc2/C1=C\c1cc(Cl)c(O)c(Cl)c1`: the solubility (kinetic) worked out at 5.95 µg/mL (≈ 17.5 µM).

On to `CC1=Nc2cc(C(=O)NCCc3ccccc3)ccc2Sc2c(C)ccc(C)c21`, for which the kinetic solubility was < 1 µg/mL.

As to `O=S(=O)(c1ccc(Cl)cc1)c1ccccn1`, the kinetic solubility was 31.8 µg/mL (≈ 125 µM).

For `NC(=O)C1CCN(c2nccc(-c3ccc4c(c3)OCCCO4)n2)CC1`, the kinetic solubility came to 44.2 µg/mL (≈ 125 µM).

`Cn1ccc2c(C(=O)NCCC(N)=O)nc(-c3cccc(CO)c3)cc21`: the kinetic solubility is > 78 µg/mL.

On to `O=C1CCCC2=C1C1(CCSC1)N=C(Nc1nc3ccccc3o1)N2` (centres undefined), for which the kinetic solubility is < 1 µg/mL.

For the molecule `COc1ccc(OC)c(-c2nnc3ccc(-c4ccc(OC)c(O[C@@H]5CCOC5)c4)nn23)c1`, the solubility (kinetic) was > 66 µg/mL.

Consider `Cc1onc(-c2ccccc2)c1C(=O)Nc1nnc(COc2ccc(Cl)cc2)s1`, for which the solubility (kinetic) was < 1 µg/mL.

`CC(=O)c1ccc(N2CCN(C(=O)c3ccc4c(c3)CC(=O)N4)CC2)cc1`: the solubility (kinetic) was > 54 µg/mL.

With `Cc1cccc(N(C)c2nc3ccccc3c3nnc(C)n23)c1`, the solubility (kinetic) is > 45 µg/mL.

With `O=C1Nc2ccccc2/C1=C/c1ccnc2ccccc12`, the kinetic solubility was found to be 3.07 µg/mL (≈ 11.3 µM).

In the case of `Cc1ccc(S(=O)(=O)Nc2cnccc2C(=O)Nc2nc(-c3ccccc3)cs2)cc1`, the solubility (kinetic) is 9.42 µg/mL (≈ 20.9 µM).

The molecule `COc1ccc(Nc2ncnc3c2cnn3-c2ccc(C)cc2)cc1Cl` registered a kinetic solubility of 0.075 µg/mL (≈ 0.205 µM).

Molecule `N#Cc1ccccc1CSc1nc2ncc(Br)cc2[nH]1` gave a solubility (kinetic) of 1.09 µg/mL (≈ 3.16 µM).

Regarding `CCn1c(=NC(=O)c2ccc(S(=O)(=O)N3CCCCC3)cc2)sc2cccc(OC)c21`, the kinetic solubility is < 1 µg/mL.

In turn, `NC1(c2ccc(NC(=O)c3ccnc(-c4cc(C(=O)O)ccn4)c3)cc2)CC1` yielded a kinetic solubility of 2.79 µg/mL (≈ 7.46 µM).

Consider `Cc1ccccc1C(=O)N1CCC(C(=O)N2CCC(N3Cc4ccccc4C3=O)CC2)CC1`, for which the kinetic solubility was > 44 µg/mL.

`COc1ccc(CNc2ccc(S(=O)(=O)Nc3nccs3)cc2)c(O)c1` yielded a kinetic solubility of 45.4 µg/mL (≈ 116 µM).

`Nc1nc2c(s1)C(c1ccccc1OCc1ccccc1Cl)CC(=O)N2` (centres undefined) returned a kinetic solubility of 2.06 µg/mL (≈ 5.34 µM). Against the preceding molecule, the solubility kinetic is about 22-fold lower.

`CC(=O)c1ccc(N2CCN(S(=O)(=O)c3ccc4c(c3)CC(=O)N4)CC2)cc1` had a kinetic solubility of 2.85 µg/mL (≈ 7.13 µM). The solubility kinetic values of the last two molecules are within 1.5-fold of each other.

For the molecule `CCOc1ccc(CCNC(=O)c2cc3cnccc3n2Cc2cccc(C)n2)cc1OCC`, the kinetic solubility is > 68 µg/mL.

As for `O=C(c1ccc2c(c1)ncn2-c1cccc(C(F)(F)F)c1)N1CCCCC1`, the solubility (kinetic) was > 55 µg/mL.

As to `Cc1cccc(-c2noc([C@@H]3Cc4nc[nH]c4CN3)n2)c1`, the kinetic solubility amounted to 18.3 µg/mL (≈ 65 µM).

As to `CCOc1ccc(CCNC(=O)c2cc3sccc3n2CCN(C)C)cc1OCC`, the solubility (kinetic) was > 63 µg/mL.

For the molecule `COc1ccc(C(=O)N2CCCC(c3nn(-c4ccc(OC)cc4)c(=O)[nH]3)C2)cc1` (centres undefined), the kinetic solubility is > 60 µg/mL.

As for `CC(C)(C)C(O)C(Oc1ccc(Cl)cc1)n1cncn1` (centres undefined), the kinetic solubility was > 44 µg/mL.

`CC(C)Oc1ccc(-c2csc(N3CCC(C(N)=O)CC3)n2)cc1` returned a kinetic solubility of 11.7 µg/mL (≈ 33.8 µM).

Regarding `CNC1CCC(N(Cc2ccc(OC)c(-c3ccc(C#N)cc3)c2)C(=O)c2sc3ccccc3c2Cl)CC1` (centres undefined), the solubility (kinetic) stood at 16.7 µg/mL (≈ 30.7 µM).

For `c1ccc(Nc2cc3c(cn2)CN(Cc2cccs2)CCN3)cc1`, the solubility (kinetic) was 42.8 µg/mL (≈ 127 µM).

Molecule `O=C(c1nc(-c2ccc(Cl)cc2Cl)c2cnccn12)N1CCOCC1` displayed a solubility (kinetic) of 20.2 µg/mL (≈ 53.6 µM).

What is called solubility (kinetic) is the concentration staying in solution when a stock, usually in DMSO, is diluted into the medium.

These data come from PubChem BioAssay AID1645848.
